These results are taken from article PMC11213822, “Copper resistance in the cold: Genome analysis and characterisation of a PIB‐1 ATPase in Bizionia argentinensis” (Environmental Microbiology Reports, 2024).

As a reminder, the Km is the concentration of substrate that gives half-maximal velocity.

One data set has as its target T1, BaCopA1 (Bizionia argentinensis, UniProt G2EDW3).
T1 construct: gene BZARG_1779; C-terminal TEV site-GFP-His tag not removed (tag printed as His6 and his8); expressed in S. cerevisiae FGY217, detergent-solubilised, Ni-NTA purified in C12E10
Nature of the data set: time course of Pi release, malachite green. It is filed as biochemical. The settings on record: 2.0 mM ATP, 2.0 mM MgCl2, 0.1 mM CuSO4, 20 mM cysteine, pH 8.0, 5 °C; 10 μM vanadate.

Substrate in the data set “purified protein”: Nc1ncnc2c1ncn2[C@@H]1O[C@H](COP(=O)(O)OP(=O)(O)OP(=O)(O)O)[C@@H](O)[C@H]1O
The experiment in a line: purified protein. The settings on record: free Mg2+ 0.25 mM, 0.1 mM CuSO4, 20 mM cysteine, asolectin/C12E10, pH 8.0, 5 °C.

Turning to `[O]=[V]([OH])([OH])[OH]` [vanadate], the “inhibition at 10 μM” value against BaCopA1 is listed as “an inhibitory effect of ATPase activity occurs with the addition of vanadate”.

B1: BaCopA1 (Bizionia argentinensis JUB59) (protein)
chain: MTCNGCRSHVEEILSKVKYVLKASVDLEKEEATIEMESHIPIEKFQNALKNDGGRYSIHKNPLPGSPKGRSNKTDKSKSEKSPLRGLGDTFYCPMHCEGDKIYDKPGDCPVCGMDLVEEQNLSTSNSEQWTCPMHPEVVKDEAGPCPICGMDLVPMQADSSAEEKTYKKLLKKFWIASIFTLPIFIMAMSEMLTNNPLYDIMDQKNWNWVQFALSIPVVFYATWMFFERAYKSIKTWNLNMFTLIGIGAGVAWLFSVFGMFFPDVFPSQFRSESGAVHVYFEAATVILTLVLLGQLLEARAHSKTNSAVKELLKLAPNKATKVVNGEDVEVSIDNIELNDILKVKPGDKIPVDGVITEGVTTIDESMITGEPVPVDKTEGDKVSSGTINGNQSFLMKAEKVGSHTLLSQIIHMVNTASRSRAPIQNLADKVSGYFVPVVVLISLITFAVWAIWGPEPAYVYALVNAIAVLIIACPCALGLATPMSVMVGVGKGAQNGVLIKNAEALEKLDKVDTLIVDKTGTITEGKPTVEKMGAFSDVFSESDVLQYIVSLNSNSEHPLAEATVKYGKEQKAEIIKSDAFSAVTGKGVEATINNKKVALGNPKMMEYAQAEITSQMQDEAKTYQKQGKTVSYLAIDKIVIGYVVIGDKIKATSAKAIKELQDKGIAVIMLTGDNHDTAQAVASELNLADFKASMLPEDKLKEVEKLQKEGKVVAMAGDGINDAPALAKSDVGIAMGTGTDVAIESAMITLVKGDLNGIVKAKHLSHAVMKNIKQNLFFALIYNTLGVPIAAGVLFPIFGILLSPMIAALAMSFSSVSVIANALRLRTIKI
B1: the Km in the data set “purified protein” amounted to 150 ± 30 µM.
